Test results: PMC2765192 (Journal of medicinal chemistry, 2009)

How the values were obtained:
human mGluR4 [1] = molecular target: T1, human mGluR4 (Homo sapiens, UniProt Q14833); format: cell-based; conditions: for mGluR4 PAM activity (in words): human mGluR4
[2] = Metabolic stability in human liver microsomes; conditions: parent remaining after the incubation period
[3] = Metabolic stability in rat liver microsomes; conditions: parent remaining after the incubation period
mGluR5 = mGluR5 (Homo sapiens, UniProt P41594); assay: mGluR subtype selectivity: mGluR5; conditions: for separation in potencies compared to mGluR4: mGluR5 vs mGluR4; for PAM activity at mGluR5 (in words): selectivity
mGluR8 = mGluR8 (Homo sapiens, UniProt O00222); assay: mGluR subtype selectivity: mGluR8; conditions: for separation in potencies compared to mGluR4: mGluR8 vs mGluR4; for PAM activity at mGluR8 (in words): selectivity
[4] = Rat pharmacokinetics, brain and plasma levels after intraperitoneal dosing; conditions: rats, nontoxic vehicles
rat mGluR4 = rat mGluR4 (Rattus norvegicus, UniProt P31423)
human mGluR4 [5] = molecular target: T1, human mGluR4; assay: Fold shift of glutamate concentration-response curve, human mGluR4/Gqi5 cells; conditions: fold shift of glutamate response curve to the left

Chain of mGluR8 (O00222 34-908, species assumed): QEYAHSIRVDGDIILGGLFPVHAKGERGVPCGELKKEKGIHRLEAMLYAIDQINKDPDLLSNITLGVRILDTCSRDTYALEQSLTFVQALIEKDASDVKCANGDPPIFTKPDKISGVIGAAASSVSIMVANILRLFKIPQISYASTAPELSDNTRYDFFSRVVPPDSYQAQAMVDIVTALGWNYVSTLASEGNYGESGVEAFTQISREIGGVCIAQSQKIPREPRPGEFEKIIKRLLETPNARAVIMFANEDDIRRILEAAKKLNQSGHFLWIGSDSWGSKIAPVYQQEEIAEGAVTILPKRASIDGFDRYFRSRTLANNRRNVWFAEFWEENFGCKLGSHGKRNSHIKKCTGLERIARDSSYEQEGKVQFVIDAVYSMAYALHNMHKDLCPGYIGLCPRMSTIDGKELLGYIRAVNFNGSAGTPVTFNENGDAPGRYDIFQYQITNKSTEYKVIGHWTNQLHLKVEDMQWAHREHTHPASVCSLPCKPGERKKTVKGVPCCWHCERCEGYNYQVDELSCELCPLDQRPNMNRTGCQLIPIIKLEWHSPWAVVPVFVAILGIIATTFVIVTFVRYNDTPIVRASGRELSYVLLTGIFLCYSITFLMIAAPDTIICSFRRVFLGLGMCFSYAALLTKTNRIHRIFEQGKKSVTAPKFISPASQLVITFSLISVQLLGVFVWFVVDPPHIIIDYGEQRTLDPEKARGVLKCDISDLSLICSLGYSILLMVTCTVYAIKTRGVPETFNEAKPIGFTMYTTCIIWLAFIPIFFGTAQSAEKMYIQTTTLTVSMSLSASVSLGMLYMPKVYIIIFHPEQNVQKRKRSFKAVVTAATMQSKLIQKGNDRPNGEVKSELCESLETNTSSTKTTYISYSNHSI
T1 sequence (Q14833 33-912): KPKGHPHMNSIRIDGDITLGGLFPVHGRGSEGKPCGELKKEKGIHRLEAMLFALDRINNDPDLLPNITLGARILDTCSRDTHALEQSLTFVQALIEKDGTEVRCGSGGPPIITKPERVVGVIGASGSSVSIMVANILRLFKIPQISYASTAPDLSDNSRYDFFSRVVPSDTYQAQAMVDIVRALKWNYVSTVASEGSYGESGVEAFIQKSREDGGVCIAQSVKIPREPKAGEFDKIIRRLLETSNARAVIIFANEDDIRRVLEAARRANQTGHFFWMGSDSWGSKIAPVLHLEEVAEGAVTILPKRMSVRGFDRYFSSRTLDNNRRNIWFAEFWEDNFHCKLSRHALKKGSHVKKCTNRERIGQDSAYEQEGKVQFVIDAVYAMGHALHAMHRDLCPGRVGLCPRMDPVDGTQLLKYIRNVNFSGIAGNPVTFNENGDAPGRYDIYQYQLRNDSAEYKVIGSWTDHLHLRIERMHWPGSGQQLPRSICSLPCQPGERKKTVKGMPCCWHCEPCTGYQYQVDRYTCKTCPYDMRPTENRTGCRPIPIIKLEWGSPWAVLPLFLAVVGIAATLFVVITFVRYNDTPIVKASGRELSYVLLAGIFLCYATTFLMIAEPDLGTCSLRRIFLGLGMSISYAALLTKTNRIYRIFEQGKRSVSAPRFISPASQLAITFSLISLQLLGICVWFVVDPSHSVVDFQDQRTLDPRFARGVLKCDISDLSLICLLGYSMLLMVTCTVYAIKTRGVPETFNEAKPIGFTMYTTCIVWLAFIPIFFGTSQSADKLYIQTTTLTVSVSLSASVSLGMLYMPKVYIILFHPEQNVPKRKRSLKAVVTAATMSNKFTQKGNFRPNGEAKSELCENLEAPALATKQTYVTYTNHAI
Chain of mGluR5 (P41594 21-1212): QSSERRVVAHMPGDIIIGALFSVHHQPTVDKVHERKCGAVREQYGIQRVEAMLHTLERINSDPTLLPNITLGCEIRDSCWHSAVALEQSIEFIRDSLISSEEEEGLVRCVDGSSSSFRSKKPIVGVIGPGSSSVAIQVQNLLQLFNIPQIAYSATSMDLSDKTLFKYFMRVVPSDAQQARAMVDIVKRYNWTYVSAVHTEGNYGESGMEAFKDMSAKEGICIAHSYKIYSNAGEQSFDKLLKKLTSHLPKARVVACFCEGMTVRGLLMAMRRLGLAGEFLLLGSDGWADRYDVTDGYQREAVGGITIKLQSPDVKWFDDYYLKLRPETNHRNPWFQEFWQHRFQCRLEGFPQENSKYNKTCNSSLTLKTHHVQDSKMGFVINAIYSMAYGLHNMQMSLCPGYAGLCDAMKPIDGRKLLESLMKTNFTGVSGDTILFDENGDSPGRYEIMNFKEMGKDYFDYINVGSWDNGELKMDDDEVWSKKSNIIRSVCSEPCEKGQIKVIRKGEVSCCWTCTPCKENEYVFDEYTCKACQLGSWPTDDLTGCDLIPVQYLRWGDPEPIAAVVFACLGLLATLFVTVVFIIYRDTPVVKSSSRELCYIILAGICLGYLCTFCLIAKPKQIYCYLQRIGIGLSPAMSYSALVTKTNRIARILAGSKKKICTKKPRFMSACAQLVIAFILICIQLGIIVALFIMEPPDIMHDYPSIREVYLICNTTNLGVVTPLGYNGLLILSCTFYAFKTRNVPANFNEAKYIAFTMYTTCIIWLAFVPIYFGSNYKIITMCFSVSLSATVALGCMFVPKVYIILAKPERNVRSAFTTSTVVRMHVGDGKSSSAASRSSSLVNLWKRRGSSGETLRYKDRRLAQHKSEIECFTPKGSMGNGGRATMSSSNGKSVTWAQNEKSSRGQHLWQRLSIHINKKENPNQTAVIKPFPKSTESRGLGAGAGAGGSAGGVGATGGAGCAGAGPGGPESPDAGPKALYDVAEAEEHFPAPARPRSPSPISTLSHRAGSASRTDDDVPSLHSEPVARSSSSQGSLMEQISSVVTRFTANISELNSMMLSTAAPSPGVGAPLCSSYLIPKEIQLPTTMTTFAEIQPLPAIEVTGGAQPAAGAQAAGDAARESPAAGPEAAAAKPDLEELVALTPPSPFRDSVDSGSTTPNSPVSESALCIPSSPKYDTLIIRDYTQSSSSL
Chain of rat mGluR4 (P31423 33-912): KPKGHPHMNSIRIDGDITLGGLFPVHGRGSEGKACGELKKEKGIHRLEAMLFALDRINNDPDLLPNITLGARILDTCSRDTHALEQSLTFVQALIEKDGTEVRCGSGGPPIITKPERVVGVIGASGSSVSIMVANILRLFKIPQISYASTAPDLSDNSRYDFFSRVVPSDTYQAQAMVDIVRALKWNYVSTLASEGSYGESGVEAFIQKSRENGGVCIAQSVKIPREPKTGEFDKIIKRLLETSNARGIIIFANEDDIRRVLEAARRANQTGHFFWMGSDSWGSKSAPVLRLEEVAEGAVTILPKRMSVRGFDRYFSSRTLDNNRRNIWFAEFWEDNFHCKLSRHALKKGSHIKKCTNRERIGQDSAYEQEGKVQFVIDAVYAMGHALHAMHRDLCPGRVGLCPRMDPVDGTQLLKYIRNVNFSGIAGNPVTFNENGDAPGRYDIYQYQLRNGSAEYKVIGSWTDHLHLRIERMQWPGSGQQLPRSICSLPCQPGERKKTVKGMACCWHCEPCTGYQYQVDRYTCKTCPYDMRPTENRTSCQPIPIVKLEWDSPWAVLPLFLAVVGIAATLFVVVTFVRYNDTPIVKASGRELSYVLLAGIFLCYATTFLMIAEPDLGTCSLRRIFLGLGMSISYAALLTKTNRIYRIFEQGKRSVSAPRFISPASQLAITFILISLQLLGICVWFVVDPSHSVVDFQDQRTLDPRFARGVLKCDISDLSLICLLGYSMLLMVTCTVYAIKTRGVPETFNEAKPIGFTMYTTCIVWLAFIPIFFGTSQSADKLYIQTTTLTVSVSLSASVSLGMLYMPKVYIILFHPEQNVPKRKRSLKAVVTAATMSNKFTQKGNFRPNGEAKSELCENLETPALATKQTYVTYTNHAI

SMILES	mGluR4 PAM activity (in words) (human mGluR4 [1])	HLM (% remaining) [2] [% remaining]	RLM (% remaining) [3] [% remaining]	also measured
O=C(Nc1ccc(Cl)c(Cl)c1)c1ccncn1 [Compound 8l]	retained potency	–	–	–
O=C(Nc1cccc(OC(F)(F)F)c1)c1ccccn1 [Compound 9d]	–	22	20	loss of activity (human mGluR4 [1]; 9d (trifluoromethoxy) vs. 9c (difluoromethoxy)): > 10 fold
COc1cc(NC(=O)c2ccccn2)ccc1Cl [Compound 9b]	submicromolar potency	5.3	1.8	separation in potencies compared to mGluR4 (mGluR5): > 20 fold; PAM activity at mGluR5 (in words) (mGluR5): weak PAM activity; separation in potencies compared to mGluR4 (mGluR8): > 20 fold; PAM activity at mGluR8 (in words) (mGluR8): weak PAM activity; central penetration (in words) [4]: centrally penetrant; potency at rat mGluR4 (in words) (rat mGluR4): submicromolar potency
COc1cc(NC(=O)c2ccccn2)ccc1F [Compound 9a]	–	3.0	6.3	–
O=C(Nc1ccc(Cl)c(Cl)c1)c1cnccn1 [Compound 8k]	lost activity	–	–	–
O=C(Nc1cccc(C(F)(F)F)n1)c1ccccn1 [Compound 9o]	inactive	–	–	–
O=C(Nc1cccc(OC(F)F)c1)c1ccccn1 [Compound 9c]	submicromolar potency	2.4	1.4	separation in potencies compared to mGluR4 (mGluR5): > 20 fold; PAM activity at mGluR5 (in words) (mGluR5): weak PAM activity; separation in potencies compared to mGluR4 (mGluR8): > 20 fold; PAM activity at mGluR8 (in words) (mGluR8): weak PAM activity; central penetration (in words) [4]: centrally penetrant; potency at rat mGluR4 (in words) (rat mGluR4): submicromolar potency
COc1cc(NC(=O)c2ccccn2)ncn1 [Compound 9p]	inactive	–	–	–
O=C(Nc1cccc(C(F)(F)F)c1)c1ccccn1 [Compound 9e]	–	–	19	–
O=C(Nc1ccc(Cl)c(Cl)c1)c1ccccc1 [Compound 8i]	inactive	–	–	–
O=C(Nc1ccc(Cl)c(Cl)c1)C1CCCCC1 [Compound 8h]	inactive	–	–	–
O=C(Nc1ccccc1)[C@]12C[C@H]1/C(=N\O)c1ccccc1O2 [Compound 1, (-)-PHCCC]	–	–	–	FS (h) (human mGluR4 [5]): 7.0±0.2
